Assay results taken from US9624219B2, “Compound (S) and (R)-N-(2-fluoropyridin-4-yl)-3-methyl-2-(5-methyl-2,4-dioxo-1,2-dihydropyrido[3,4-d]pyrimidin-3(4H)-yl)butanamide and use” (GlaxoSmithKline Intellectual Property Development Limited, priority 2015, dated 2017).
In brackets after ≈: the same amount, converted by molar mass.

Key:
P. Falciparum Pf3D7A = assay: P. falciparum growth inhibition assay ([3H]hypoxanthine incorporation); type: cell-based; conditions: Plasmodium falciparum, 48 h, read-out: average Pf IC50
Method: P. falciparum Growth Inhibition Assay. The sensitivity of P. falciparum infected erythrocytes to the compound is determined in triplicate using the [^3H]hypoxanthine incorporation method with an inoculum of 0.5% parasitemia (ring stage) and 2% hematocrit. The parasites were grown in RPMI 1640 and supplemented with […] (or 10% serum). Plates are incubated at 37° C., 5% CO2, 5% O2, 90% N2. After 24 h of incubation, [^3H]hypoxanthine is added and plates are incubated for another 24 h. After that period, plates are harvested on a glass fiber filter using a TOMTEC Cell harvester 96. Filters are dried and melt on scintillator sheets and the bound radioactivity is quantified by use of a Wallac Microbeta Trilux (Model 1450 LS-Perkin Elmer). IC50s are determined using Grafit 5 program (Grafit program; Erithacus Software, Horley, Surrey, United Kingdom).

[1] = tested on: Plasmodium falciparum Pf3D7^0087/N9; assay: P. falciparum in vivo efficacy assay (mouse model); parameters: species or system NODscidIL2Rγ^null mice engrafted with human erythrocytes; conditions: interval of confidence 95%
Method: P. falciparum In Vivo Efficacy Assay.
Antimalarial in vivo efficacy was determined using the P. falciparum mouse model following the procedure described in: Jimenez-Diaz, M. B., Mulet, T., Viera, S., Gómez, V., Garuti, H., Ibañez, J., Alvarez-Doval, A., Shlutz, D. L., Martinez, A., Improved Murine Model Of Malaria Using Plasmodium falciparum (Competent Strains and Non-Myelodepleted NOD-scid IL2R_null Mice Engrafted with Human Erythrocytes) Antimicrob. Agents Chemother 2009, 53 (10), 4533-4536.
The goal of this study is to assess the therapeutic efficacy of Example 1 against Plasmodium falciparum Pf3D7^0087/N9 growing in peripheral blood of NODscidIL2Rγ^null mice engrafted with human erythrocytes. The levels of Example 1 are measured in serial peripheral blood samples obtained from each mouse of the efficacy experiment during the first 23 hrs after the first dose. The area under the curve of levels of compound is used to estimate the exposure in blood during the first 23 hours after the first administration (AUC0-23h).
The effect of Example 1 on P. Falciparum Pf3D7^0087/N9 was assessed by microscopy and flow cytometry.

[2] = Solubility assessment in FaSSIF (equilibrium solubility); type: physicochemical; conditions: thermodynamic from solid, 4 hr at room temperature, LC-MS
Method: Solubility Assessment in FaSSIF
Organic solvents of HPLC grade were used. Ultra pure water (Milli-Q grade) was used. Buffers were prepared with ultra pure water and filtered using 0.45μ nylon filters.
Determination of Equilibrium Solubility (Assuming Chemical Stability in the Desired Solvent is not a Problem).
• a) 1 mg of solid compound was weighted in one 4 mL glass vial and 1 mL of FaSSIF was added. All these samples were prepared by duplicate. • b) The samples were stirred (roller mixer) for 4 hr at room temperature. If required, additional solid compound (0.1 mg) was added to maintain excess of it (saturated solutions). • c) After 4 hours, the samples were centrifuged (10000 rpm, 10 min.) and the supernatants were transfer to an HPLC vial and analysed by LC-MS (previous dilution with mobile phase when needed). • d) The pH of the final solution in each sample was measured with a pH-meter (WTW pH330i and a pH-electrode Sentix 41). LC-MS Assay for Analytical Quantification
All supernatants were analysed by LC-MS. Quantification of those samples was carried out against calibration curves obtained from 1 mg/mL DMSO (Aldrich cat. ref.: 27685-5) stock solutions, by dilution with the mobile phase used in the chromatography. Depending on the solubility range, U.V. (1 μg/mL to 100 μg/mL) or MS (1 μg/mL to 1 ng/mL) detector were used in the quantification. […]

With Cc1cncc2[nH]c(=O)n([C@H](C(=O)Nc3ccnc(F)c3)C(C)C)c(=O)c12 [Example 1, (S)—N-(2-fluoropyridin-4-yl)-3-methyl-2-(5-methyl-2,4-dioxo-1,2-dihydropyrido[3,4-d]pyrimidin-3(4H)-yl)butanamide] the IC50 (P. Falciparum Pf3D7A) was 32 nM, the “mean ED90” value ([1]; P. falciparum Pf3D7^0087/N9 in humanised NODscidIL2Rγnull mice) was 0.53 mg/kg and the “mean AUCED90” value ([1]; blood exposure at ED90 (AUC0-23h after first dose), P. falciparum mouse model) was 0.18 μg·h·mL-1·day-1. It also gave a solubility at 4 h [2] of 426 µg/mL (≈ 1150 µM).
